Results on 1 compound are retold here after article PMC10385865, “Synthesis and Anticancer Activity of Novel Dual Inhibitors of Human Protein Kinases CK2 and PIM-1” (Pharmaceutics, 2023).

Assay [1] has as its system phosphorylation of Ser112 in BAD (marker of PIM-1 activity), MCF-7. In words: Western blot/densitometry, intracellular PIM-1 inhibition, MCF-7. In kind it is cell-based, human. The following applies: MCF-7, 10 µM, 48 h, densitometry. On the procedure:
(§1) All the procedures are described in detail in Supplementary Materials (Section S3.3). The protein concentration was determined using a Bradford assay.
(§2) For densitometry, immunoblots were scanned using G Box Chemi (Syngene, Cambridge, UK), and the density of each lane of phosphorylated and total protein was quantified using GeneSys software (Syngene, Cambridge, UK). Phosphorylated protein densities were normalized to GAPDH densities, assuming 1 for untreated cells; then, they were converted to a percentage of the appropriate control.
(§3) The data obtained for p65 confirmed the intracellular inhibition of CK2 by the tested compounds in all the studied cell lines in a dose-dependent manner. […] Otherwise, Western blot data for BAD (a marker of PIM-1 activity) indicated inhibition of PIM-1 only in MCF-7 cells, with the most significant reduction in phosphorylated BAD in cells treated with 10 µM conc. of rac-6 (0.49 of control) (Figure 8b). Unexpectedly, the relative level of BAD-P in the drug-treated CCRF-CEM and K-562 cells was even higher than in control cells.
(§4) The following primary antibodies were used: anti-GAPDH (Millipore, St. Louis, MO, USA; […]
(§5) overnight, +4°C); anti-BAD (Apoptosis I Sampler Kit, # 612741, BD Biosciences, San Diego, CA, USA; 1:1000, overnight, +4°C), anti-phospho-BAD-Ser112 (CST, Beverly, MA, USA; 9291S, 1:500 overnight, +4°C). […]
Background: A western blot detects proteins with antibodies after separation by electrophoresis.

The subject of assay [2] is phosphorylation of Ser112 in BAD (marker of PIM-1 activity), CCRF-CEM. In words: Western blot/densitometry, intracellular PIM-1 inhibition, CCRF-CEM. The following applies: 48 h. The class given is cell-based, human. On the procedure:
as §1, §2, §3, §4, §5

As for `OC(CNc1nc2c(Br)c(Br)c(Br)c(Br)c2[nH]1)C(F)(F)F` (racemic) [rac-6, 1,1,1-Trifluoro-3-[(4,5,6,7-tetrabromo-1H-benzimidazol-2-yl)amino]propan-2-ol], in assay [1], the “phosphorylated BAD, relative level” value is recorded as 0.49 of control. Moreover, the “level of phosphorylated BAD (in words)” value in assay [2] is reported as “increased level of phosphorylated BAD”.
